This is an account of results in patent US6514981B1, “Methods of modulating tyrosine protein kinase function with indolinone compounds” (Sugen, Inc., priority 1998, dated 2003).

For one assay, the system named is A431 cells. In words: Growth of A431 cells (SRB). It counts as cell-based. To be noted: Homo sapiens, A-431, 72 h, 2% calf serum, 3 days. As to the method:
The following assay measures growth rates for A43 1 cells.
2% calf serum/DMEM+2 mM glutamine, Pen/Strep
2. Dilute cells in growth medium to 60,000 cell/mL. Transfer 100 μL of cells to each well in a 96-well flat bottom plate to give 6000 cells/well.
1. In a 96-well round bottom plate, add 120 μL of growth medium containing 2×final % DMSO found in highest screening concentration of compound to columns 1 to 11. For example, if the highest concentration is […], ad this is made from a 100 mM stock, 1×DMSO is 0.1%, so 2×DMSO is 0.2%. This plate is used to titrate out the compound, 4 rows per compound.
2. In a sterile 15 mL tube, make a 2×solution of the highest screening concentration of compound in growth medium plus 2×DMSO. 1 mL per cell line is needed. The starting concentration of the compound is usually 100 μM but this concentration may vary depending upon the solubility of the compound.
3. Transfer 240 μL of the 2×starting compound solution to qudruplicate wells in column 12 of the 96-well round bottom plate. Do 1:2 serial dilutions across the plate from right to left by transferring […] from column 12 to column 11, column 11 to 10 and so on through column 2. […]
6. Read plates on Dynatech ELISA Plate REader at 570 nm with reference at 630 nm. […]

A further assay deals with EGFR (Homo sapiens, UniProt P00533). In words: EGF receptor phosphorylation assay in cells (ELISA). It counts as cell-based. Also on record: expressed in transfected cells; host or cells: NIH 3T3/C7 cell line. As to conditions: NIH 3T3/C7 cells, EGF stimulation. As to the method:
EGF Receptor kinase activity in cells genetically engineered to express human EGF-R was measured as described below: 1. Coat ELISA plates (Coming, 96 well, Cat. #25805-96) wit 05-101 antibody at 0.5 μg per well in PBS, 150 μL final volume/well, and store overnight at 4° C. Coated plates are good for up to 10 days when stored at 4° C. 1. NIH 3T3/C7 cell line (Honegger, et al., Cell 51:199-209, 1987) can be use for this assay. 3. Resuspend cells in seeding medium (DMEM, 0.5% bovine serum), and count the cells using trypan blue. Viability above 90% is acceptable. Seed cells in DMEM medium (0.5% bovine serum) at a density of 10,000 cells per well, 100 μL per well, in a 96 well microtiter plate. Incubate seeded cells in 5% CO2 at 37° C. for about 40 hours. 1. Check seeded cells for contamination using an inverted microscope. Dilute drug stock (10 mg/mL in DMSO) 1:10 in DMEM medium, then transfer 5 μL to a test well for a final drug dilution of 1:200 and a final DMSO concentration of […]. […] The maximal phosphotyrosine signal is determined by subtracting the value of the negative controls from the positive controls. The percent inhibition of phosphotyrosine content for extract-containing wells is then calculated, after subtraction of the negative controls. The IC50 values measured in the EGF receptor phosphorylation assay for the compound of formula VI are depicted in Table 3: […]
A general note: An ELISA detects its analyte on a solid surface through an enzyme-linked reagent.

Chain of EGFR (P00533 25-1210): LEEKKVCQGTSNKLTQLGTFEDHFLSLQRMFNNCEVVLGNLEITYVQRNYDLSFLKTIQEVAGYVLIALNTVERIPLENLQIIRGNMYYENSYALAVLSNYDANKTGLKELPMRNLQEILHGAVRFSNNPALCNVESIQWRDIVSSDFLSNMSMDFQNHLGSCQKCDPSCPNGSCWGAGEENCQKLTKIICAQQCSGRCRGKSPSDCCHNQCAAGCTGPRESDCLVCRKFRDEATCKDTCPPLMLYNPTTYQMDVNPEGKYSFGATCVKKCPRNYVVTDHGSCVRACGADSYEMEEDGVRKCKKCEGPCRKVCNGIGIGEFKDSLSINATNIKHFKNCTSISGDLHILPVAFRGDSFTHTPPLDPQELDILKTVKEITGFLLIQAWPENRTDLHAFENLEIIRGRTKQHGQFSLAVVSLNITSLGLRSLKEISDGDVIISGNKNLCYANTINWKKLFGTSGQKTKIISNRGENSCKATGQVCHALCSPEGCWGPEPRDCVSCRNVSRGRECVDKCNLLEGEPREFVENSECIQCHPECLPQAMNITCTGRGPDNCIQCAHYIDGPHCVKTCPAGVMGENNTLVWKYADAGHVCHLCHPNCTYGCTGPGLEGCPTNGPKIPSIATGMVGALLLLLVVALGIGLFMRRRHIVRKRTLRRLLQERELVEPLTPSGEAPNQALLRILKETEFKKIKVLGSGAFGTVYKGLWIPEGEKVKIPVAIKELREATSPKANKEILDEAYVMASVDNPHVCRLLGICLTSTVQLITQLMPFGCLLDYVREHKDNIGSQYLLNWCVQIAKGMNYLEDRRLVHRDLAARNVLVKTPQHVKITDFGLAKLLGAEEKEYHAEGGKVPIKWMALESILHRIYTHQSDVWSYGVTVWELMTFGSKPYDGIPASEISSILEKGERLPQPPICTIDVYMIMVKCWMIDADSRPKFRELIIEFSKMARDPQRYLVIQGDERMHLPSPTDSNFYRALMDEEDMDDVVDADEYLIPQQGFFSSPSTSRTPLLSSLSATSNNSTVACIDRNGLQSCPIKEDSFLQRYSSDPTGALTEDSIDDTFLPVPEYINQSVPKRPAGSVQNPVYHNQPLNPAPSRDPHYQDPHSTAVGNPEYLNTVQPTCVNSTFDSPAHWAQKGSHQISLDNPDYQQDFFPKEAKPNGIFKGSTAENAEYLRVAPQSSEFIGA

What is called IC50 is the concentration that gives 50% inhibition. For the compound `Cc1cc(/C=C2/C(=O)Nc3ccccc32)c(C)c2c1[nH]c1ccccc12` [VI], the values for the half-maximal inhibitory concentration (IC50) with A431 cells and on EGFR were 0.712 µM and above 100000 nM, respectively.
